How the values were obtained:
[1] = system: MMP-2 and MMP-9; assay: Gelatin zymography of HT1080 conditioned medium; assay type: biochemical, human; conditions: 1–100 μM in HT1080 conditioned medium
Description: (§1) The culture medium of human fibrosarcoma HT1080 cells (DMEM) was removed and concentrated 20-fold in a Vivaspin 6 ml concentrator. It was incubated for 30 min at ambient temperature in nonreducing sample buffer and run under Laemmli conditions ([Laemmli, 1970]) by loading a volume of 25 μl onto 7.5% polyacrylamide gels containing 0.1% sodium dodecyl sulphate (SDS), 2 mg ml^−1 casein and 0.16 μM human plasminogen. Following electrophoresis, gels were incubated for 1 h in 2.5% (v v^−1) Triton X-100 for removal of SDS and then for 1 h at 37°C in 50 mM Tris-HCl, 0.1 M NaCl, pH 7.6. Plasminogen activator (PA) activity was visualised as clear bands of lysis upon staining with 0.1% Coomassie blue R250. Purified human high-molecular-weight two-chain urokinase plasminogen activator (HMW-uPA) and low-molecular-weight urokinase plasminogen activator (LMW-uPA) were run in each gel as positive controls. An analogous protocol was followed to detect enzymatic activities towards MMP-2 and MMP-9 except that the 7% SDS–PAGE contained 1 mg ml^−1 bovine gelatin. The gels were incubated at 37°C for about 18 h in 5 mM Tris, pH 7.6 containing 0.2 M NaCl, 5 mM CaCl2 and 0.02 (w v^−1) Brij35. Protein staining was performed during 1 h with a 0.25% solution of Coomassie brillant blue R250 in 50% methanol and 7% acetic acid and destaining in a solution of 20% methanol and […]. […]

[2] = system: HT1080 fibrosarcoma cells; assay: Chemoinvasion assay, type IV collagen-coated Transwell inserts (Boyden chamber); assay type: cell-based, human; conditions: Homo sapiens, HT-1080, 48 h, type IV collagen-coated filters, read-out: inhibition of HT1080 cell invasion (chemoinvasion)
Description: Plates (24-well) (Falcon, Becton-Dickinson, USA) and 6.5 mm polycarbonate filters (8 μm pore size) of Transwell cell culture chamber inserts (Costar, Netherlands) were coated with 100 μl of type IV collagen purified from human placenta diluted at 200 μg ml^−1 in phosphate-buffered saline (PBS). Coats were left to air-dry overnight in a laminar flow hood under UV light. Uniformity of the coating was assessed by Coomassie blue staining. Before use, coated plates and inserts were washed twice with water and incubated for at least 1 h in serum-free DMEM at 37°C ([Maquoi et al, 1999]).
HT1080 cells exponentially growing in T-75 flasks (Nunc, Costar, Netherlands) were collected by trypsin–ethylenediaminetetraacetic acid treatment, washed with serum-containing medium and allowed to recover from trypsinisation for at least 30 min at 37°C. Cells were then washed twice in serum-free DMEM and diluted in the same medium supplemented with 0.1% bovine serum albumin (BSA, fraction V, Sigma, USA) to a cell density of 6 × 10^5 cells ml^−1.
The influence of coumarin derivatives (0.1, 1 and 10 μM) on HT1080 cell invasion and migration was assayed using Transwell cell culture inserts (Costar) and compared to the reference compound GI 129471 (1 μM), an MMP inhibitor ([Wheeler et al, 1998]).
For chemoinvasion assays, type IV collagen-coated membranes (see above) were used, whereas uncoated membranes were employed for chemotaxis assays. Lower wells of chambers were filled with DMEM supplemented with 20% FCS and 1% BSA (fraction V, ICN) as chemoattractant, in the presence or absence of coumarin derivative (final concentration 0.1, 1 and 10 μM) or GI 129471 (final concentration 1 μM). Cells (6 × 10^4) suspended in DMEM supplemented with 0.1% BSA (fraction V, ICN) were seeded in the upper wells. Chambers were subsequently incubated for 48 and 4 h for chemoinvasion and chemotaxis assays, respectively, in a humid atmosphere at 37°C (in order to maintain a chemotactic gradient, media from both lower and upper wells were renewed after 24 h). After incubation, filters were removed from the chambers, fixed in 4% paraformaldehyde for 15 min (4°C), permeabilised for 10 min in methanol (−20°C) and stained with Giemsa (4%) for 15 min. The upper surface of the filters was scrapped with a cotton swab and cells having reached the lower surface of the filters were visually counted using a light microscope (Vanox AH3, Olympus, Hamburg, Germany) at 20-fold magnification. Each assay was performed in triplicate. Results were expressed as percentages (±s.d.) of the migration of control cells.

[3] = system: HMW- and LMW-uPA; assay: Plasminogen zymography of HT1080 conditioned medium; assay type: biochemical, human; conditions: 1–100 μM in HT1080 conditioned medium
Description: as §1

[4] = system: HT1080 cells; assay: Tumorigenicity of HT1080 cells injected s.c. with matrigel in nude mice; assay type: in vivo; conditions: 30 mg kg^−1 i.p. three times per week; for effect on tumour growth (tumour volume), HT1080: ANOVA; for time after cell inoculation to reach a tumour incidence of 50%: tumours higher than 80 mm^3
Description: Matrigel (basement membrane proteins) was extracted from the mouse Engelbreth–Holm–Swarm (EHS) tumour as previously described ([Noël et al, 1991]). Tumoral cells were detached by trypsinisation, harvested by centrifugation, resuspended in 0.25 ml of serum-free medium and mixed with an equal volume of cold matrigel (10 mg ml^−1). The suspension (1 × 10^6 cells injection site^−1) was injected subcutaneously (s.c.) on both body flanks of 6–8-week-old female athymic nude mice (n=6; nu/nu Swiss mice from Iffa credo, L'Arbresle, France). The coumarin derivatives in PBS were injected intraperitoneally (30 mg kg^−1) three times per week during the whole assay.
The tumorigenicity defines the capacity of cells to induce tumour formation. The larger (a) and smaller (b) diameters of the apparent tumour were measured and served for tumour volume calculation according to a × b^2 × 0.4 ([Attia and Weiss, 1966]). Injected mice were examined weekly. Tumours presenting a volume higher than 80 mm^3 and which maintained a progressive growth were taken into account ([Noël et al, 1992]). Results are expressed as the mean (±s.e.m.) of the tumour volumes.

CC(=O)OCc1ccc2oc(=O)c(C(=O)Oc3cccc(Cl)c3)cc2c1 [compound 4, 3-chlorophenyl 6-acetoxymethyl-2-oxo-2H-1-benzopyran-3-carboxylate]
effect on gelatinolytic activities of conditioned culture medium (gelatin zymography) [1]: did not abrogate
inhibition at 1 µM [2]: 50%
inhibition at 10 µM [2]: 90%
effect on HMW- and LMW-uPA activities of conditioned culture medium (plasminogen zymography) [3]: did not abrogate
effect on tumour growth (tumour volume), HT1080 [4]: did not significantly affect tumour growth
time after cell inoculation to reach a tumour incidence of 50% [4]: 26 days

CC(=O)OCc1ccc2oc(=O)c(C(=O)Oc3cccc(Br)c3)cc2c1 [compound 7, 3-bromophenyl 6-acetoxy-methyl-2-oxo-2H-1-benzopyran-3-carboxylate]
effect on gelatinolytic activities of conditioned culture medium (gelatin zymography) [1]: did not abrogate
inhibition at 1 µM [2]: 80%
inhibition at 10 µM [2]: ~90%
effect on HMW- and LMW-uPA activities of conditioned culture medium (plasminogen zymography) [3]: did not abrogate
effect on tumour growth (tumour volume), HT1080 [4]: significantly reduced the tumour growth
effect on tumour incidence, HT1080 ([4]; log Rank test, P<0.004): reduce both the incidence
time after cell inoculation to reach a tumour incidence of 50% [4]: 48 days

From PMC2376372, “3-Bromophenyl 6-acetoxymethyl-2-oxo-2H-1-benzopyran-3-carboxylate inhibits cancer cell invasion in vitro and tumour growth in vivo” (British Journal of Cancer, 2003)
